Test results taken from ChEMBL document CHEMBL3856210, “Discovery of in vitro antitubercular agents through in silico ligand-based approaches” (Eur J Med Chem, 2016).
Values after ≈ are worked out from the molar mass of the structure shown.

Assay: Drug level in human liver microsomes assessed as CYP450-mediated compound formation treated with (+/-)-1-(4-Chlorophenyl)-2-(1H-imidazol-1-yl)ethyl-4-(3,4-dichlorophenyl)piperazine-1-carboxylate at 50 uM after 60 mins in presence of NADPH by LC-MS analysis
Type: ADME
Conditions: not given

For O=C(OC(c1ccc(Cl)cc1)C(O)n1ccnc1)N1CCN(c2ccc(Cl)c(Cl)c2)CC1 (stereo unspecified), the Drug metabolism was “Metabolite_Detected”.

Assay: Antitubercular activity against Mycobacterium tuberculosis H37Ra ATCC 25177 after 21 days by agar dilution method
Type: functional
Conditions: ATCC 25177, 504 h

Going from CC1=NN(c2ccccc2)C(=O)/C1=C(/c1ccc(Cl)cc1)N1CCOCC1 to CC1=NN(c2ccc(Cl)cc2)C(=O)/C1=C\N1CCN(C)CC1, the MIC rises from 16 µg/mL (≈ 41.9 µM) to 64 µg/mL (≈ 201 µM) (4-fold).

First: CSc1ccc(-n2c(-c3ccc(C)cc3)cc(CN3CCSCC3)c2C)cc1
Second: CSc1ccccc1-n1c(-c2ccc(F)cc2)cc(CN2CCSCC2)c1C
The MIC of the first is 8-fold lower: 1 µg/mL (≈ 2.45 µM) for the first, 8 µg/mL (≈ 19.4 µM) for the second.

Fc1ccc([C@H](c2cn(-c3ccccc3)nn2)n2ccnc2)cc1 and O=C(NCCCn1ccnc1)O[C@H](Cn1ccnc1)c1ccc(F)cc1 are the same in MIC: 32 µg/mL (≈ 100 µM) for the first, 32 µg/mL (≈ 89.5 µM) for the second.

CCOC(=O)c1cnc2c(Cl)c(Cl)ccc2c1NCc1cccnc1 and CCCOc1ccc2c(c1)sc1ncc(NC(=O)c3ccc(Cl)cc3)c(=O)n12 are the same in MIC: 32 µg/mL (≈ 85.1 µM) for the first, 32 µg/mL (≈ 77.3 µM) for the second.

O=C(Nc1ccc(Sc2ccc([N+](=O)[O-])cc2)cc1)O[C@H](Cn1ccnc1)c1ccc(Cl)cc1 and O=C(O[C@H](Cn1ccnc1)c1ccc(Cl)cc1)N1CCN(c2ccc(Cl)cc2)CC1 are the same in MIC: 16 µg/mL (≈ 32.3 µM) for the first, 16 µg/mL (≈ 35.9 µM) for the second.

Cc1cc(=O)n2nc(C)c(-c3ccc(Cl)cc3)c2[nH]1 and Cc1nn2c(=O)cc(Cc3ccsc3)[nH]c2c1-c1ccc(Cl)cc1 are the same in MIC: 32 µg/mL (≈ 117 µM) for the first, 32 µg/mL (≈ 89.9 µM) for the second.

First: CCCc1cc(=O)n2nc(C)c(-c3ccc(OC)c(OC)c3)c2[nH]1
Second: Cc1n[nH]c(C)c1CCc1cc(=O)n2nc(C)c(-c3ccc(Cl)cc3)c2[nH]1
The MIC of the first is 8-fold higher: 64 µg/mL (≈ 195 µM) for the first, 8 µg/mL (≈ 20.9 µM) for the second.

Cc1nn2c(=O)c3c([nH]c2c1-c1ccc(Cl)cc1)CCC3 and Cc1[nH]n(-c2ccc(Cl)cc2)c(=O)c1C(=O)c1ccc(Cl)cc1 are within 1.5-fold of each other in MIC: 8 µg/mL (≈ 26.7 µM) for the first, 6.25 µg/mL (≈ 18 µM) for the second.

First: Cc1cccc(-c2nn3c(=O)cc(CCc4c(C)n[nH]c4C)[nH]c3c2C)c1
Second: Cc1ccc(C(=O)Oc2c(C(=O)c3ccc(C)cc3)c(C)nn2-c2ccccc2)cc1
The MIC of the first is lower: 64 µg/mL (≈ 177 µM) for the first, greater than 100 µg/mL for the second.

Going from CC(C)c1[nH]n(-c2ccc(Cl)cc2)c(=O)c1C(=O)c1ccc(Cl)cc1 to Cc1c(C(=O)c2ccc(Cl)cc2)c(=O)n(-c2ccc(Cl)cc2)n1Cc1ccccc1, the MIC falls from 32 µg/mL (≈ 85.3 µM) to 16 µg/mL (≈ 36.6 µM) (2-fold).

First: O=C(C1=C(O)C(=O)N(c2ccccc2)C1c1ccccc1F)c1ccc(Cl)cc1 (stereo unspecified)
Second: Cc1c(C(=O)c2ccc(Cl)cc2)c(=O)n(-c2ccccc2)n1Cc1ccccc1
The MIC of the first is lower: 32 µg/mL (≈ 78.5 µM) for the first, greater than 64 µg/mL for the second.

First: Cc1nn(-c2ccccc2)c(O)c1C(=O)c1ccc2ccccc2c1
Second: Cc1nn(-c2ccccc2)c(O)c1C(=O)/C=C/c1ccccc1
The MIC of the first is 2-fold lower: 25 µg/mL (≈ 76.1 µM) for the first, 50 µg/mL (≈ 164 µM) for the second.

For Cc1cc(/C=N\OCc2ccc(Cl)cc2)c(C)n1-c1ccc(F)cc1, the MIC was 50 µg/mL (≈ 140 µM).
